We go through 3 molecules from patent US20160318987A1 (MEDIMMUNE LIMITED, priority 2013, published 2016).

Common to all, as to format: cell-based
Holding throughout (conditions): n = 2

For one test, the target named is T1, hGLP-1R (Homo sapiens, UniProt P43220).
T1 construct: expressed in transfected cells
Kind of test: cAMP functional assay, cells expressing human GLP-1 receptor (primary assay).

In another test the target is T2, hGluc-R (Homo sapiens, UniProt P47871).
T2 construct: expressed in transfected cells
T2 sequence (P47871 26-477): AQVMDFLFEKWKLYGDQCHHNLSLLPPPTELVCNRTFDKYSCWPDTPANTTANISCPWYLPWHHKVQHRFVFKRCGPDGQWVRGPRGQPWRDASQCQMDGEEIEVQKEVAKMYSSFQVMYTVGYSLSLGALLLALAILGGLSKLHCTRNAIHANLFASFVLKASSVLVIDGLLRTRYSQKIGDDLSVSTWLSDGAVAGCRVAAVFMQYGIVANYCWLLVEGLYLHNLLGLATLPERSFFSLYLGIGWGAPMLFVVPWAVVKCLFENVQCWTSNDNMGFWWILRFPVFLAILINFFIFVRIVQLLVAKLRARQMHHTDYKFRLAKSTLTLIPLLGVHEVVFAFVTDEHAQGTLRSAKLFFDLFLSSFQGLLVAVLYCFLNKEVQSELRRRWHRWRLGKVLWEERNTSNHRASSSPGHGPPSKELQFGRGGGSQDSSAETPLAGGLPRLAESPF
Kind of test: cAMP functional assay, cells expressing human glucagon receptor (primary assay). Here is the method:
The biological activities/receptor potencies of the synthetic GLP-1 peptides described herein are suitably tested for biological activity, e.g., stimulation of one or more cellular receptor responses. Stable cell lines expressing human, mouse, rat, or dog GLP-1 receptor (GLP-1R), glucagon receptor (GCGR) or glucose-dependent insulinotropic peptide (gastric inhibitory polypeptide) receptor (GIPR) are generated in HEK293 cells or CHO cells by standard methods.
cAMP assays were performed using “assay buffer”: Assay Buffer: 0.1% BSA (Sigma #A3059) in HBSS (Sigma #H8264) with 25 mM HEPES, pH 7.4 and containing 0.5 mM IBMX (Sigma #17018).
Low protein binding 384-well plates (Greiner #781280) are used to perform eleven 1 in 5 serial dilutions of test samples which are made in assay buffer. All sample dilutions are made in duplicate.
A frozen cryo-vial of cells expressing the receptor of interest is thawed rapidly in a water-bath, transferred to pre-warmed assay buffer and spun at 240× g for 5 minutes. Cells are re-suspended in assay buffer at a batch-dependent optimized concentration (e.g. hGCGR cells at 2×10^5 cells/ml, hGLP-1R and hGIPR cells at 1×10^5 cells /ml).
From the dilution plate, a 5 μL replica is stamped onto a black shallow-well u-bottom 384-well plate (Corning #3676). To this, 5 μL cell suspension is added and the plates incubated at room temperature for 30 minutes.
cAMP levels are measured using a commercially available cAMP dynamic 2 HTRF kit (Cisbio, Cat #62AM4PEJ), following the two step protocol as per manufacturer's recommendations. In brief; anti-cAMP cryptate (donor fluorophore) and cAMP-d2 (acceptor fluorophore) are made up separately by diluting each 1/20 in conjugate & lysis buffer provided in the kit. 5 μL anti-cAMP cryptate is added to all wells of the assay plate, and 5 μL cAMP-d2 is added to all wells except non-specific binding (NSB) wells, to which conjugate and lysis buffer are added. Plates are incubated at room temperature for one hour and then read on an Envision (Perkin Elmer) using excitation wavelength of 320 nm and emission wavelengths of 620 nm & 665 nm. EC50 values of the synthetic peptides determined in cAMP assays are then determined.

The next test addresses T3, hGIP-R (Homo sapiens, UniProt P48546).
T3 construct: expressed in transfected cells
T3 sequence (P48546 22-466): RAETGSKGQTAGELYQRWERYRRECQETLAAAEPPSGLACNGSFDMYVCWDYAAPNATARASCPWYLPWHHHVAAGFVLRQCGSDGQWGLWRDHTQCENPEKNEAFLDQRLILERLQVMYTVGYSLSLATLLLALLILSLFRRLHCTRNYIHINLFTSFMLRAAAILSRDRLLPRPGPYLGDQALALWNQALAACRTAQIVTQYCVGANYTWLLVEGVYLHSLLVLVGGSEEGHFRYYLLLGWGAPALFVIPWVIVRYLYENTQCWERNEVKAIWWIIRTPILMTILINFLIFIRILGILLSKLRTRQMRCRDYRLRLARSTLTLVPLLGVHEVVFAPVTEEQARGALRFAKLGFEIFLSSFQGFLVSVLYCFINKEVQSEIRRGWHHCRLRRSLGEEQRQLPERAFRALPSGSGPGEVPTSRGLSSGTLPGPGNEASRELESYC
Kind of test: cAMP functional assay, cells expressing human GIP receptor (primary assay).

T1 sequence (P43220 24-463): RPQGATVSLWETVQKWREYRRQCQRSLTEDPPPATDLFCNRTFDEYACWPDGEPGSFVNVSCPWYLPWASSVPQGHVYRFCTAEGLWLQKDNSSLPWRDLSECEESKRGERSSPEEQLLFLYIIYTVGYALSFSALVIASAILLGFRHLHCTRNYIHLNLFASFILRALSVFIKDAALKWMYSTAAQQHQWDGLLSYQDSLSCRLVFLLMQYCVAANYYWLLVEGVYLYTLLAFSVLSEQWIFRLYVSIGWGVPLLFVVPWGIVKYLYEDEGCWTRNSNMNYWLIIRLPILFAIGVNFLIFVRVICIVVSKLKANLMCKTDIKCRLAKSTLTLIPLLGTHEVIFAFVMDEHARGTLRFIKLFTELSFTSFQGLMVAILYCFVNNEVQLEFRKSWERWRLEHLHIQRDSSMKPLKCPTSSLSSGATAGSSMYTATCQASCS

By EC50 is commonly meant the concentration needed to bring the measured effect to its halfway point. Read a high EC50 as weaker potency. For `CC[C@H](C)[C@H](NC(=O)[C@H](Cc1ccccc1)NC(=O)[C@H](CCC(=O)O)NC(=O)[C@H](CCCCN)NC(=O)[C@H](C)NC(=O)[C@H](C)NC(=O)[C@H](CCC(N)=O)NC(=O)CNC(=O)[C@H](CCC(=O)O)NC(=O)[C@H](CC(C)C)NC(=O)[C@H](Cc1ccc(O)cc1)NC(=O)[C@H](CO)NC(=O)[C@H](CO)NC(=O)[C@@H](NC(=O)[C@H](CC(=O)O)NC(=O)[C@H](CO)NC(=O)[C@@H](NC(=O)[C@H](Cc1ccccc1)NC(=O)[C@@H](NC(=O)CNC(=O)[C@H](CCC(=O)O)NC(=O)C(C)(C)NC(=O)[C@@H](N)Cc1c[nH]cn1)[C@@H](C)O)[C@@H](C)O)C(C)C)C(=O)N[C@@H](C)C(=O)N[C@@H](Cc1c[nH]c2ccccc12)C(=O)N[C@@H](CC(C)C)C(=O)N[C@H](C(=O)NC(C)(C)C(=O)NCC(=O)N[C@@H](CCCNC(=N)N)C(N)=O)C(C)C` [SEQ ID NO: 23, H-(Aib)^2-EGT^5 FTSDV^10 SSYLE^15 GQAAK^20 EFIAW^25 LV-(Aib)^28-GR^30], the EC50 at hGLP-1R came out at 0.0279 nM; on hGluc-R, 103 nM; at hGIP-R, 105 nM.

For the molecule `CC[C@H](C)[C@H](NC(=O)[C@H](Cc1ccccc1)NC(=O)[C@H](CCC(=O)O)NC(=O)[C@H](CCCCN)NC(=O)[C@H](C)NC(=O)[C@H](C)NC(=O)[C@H](CCC(N)=O)NC(=O)CNC(=O)[C@H](CCC(=O)O)NC(=O)[C@H](CC(C)C)NC(=O)[C@H](Cc1ccc(O)cc1)NC(=O)[C@H](CO)NC(=O)[C@H](CO)NC(=O)[C@@H](NC(=O)[C@H](CC(=O)O)NC(=O)[C@H](CO)NC(=O)[C@@H](NC(=O)[C@H](Cc1ccccc1)NC(=O)[C@@H](NC(=O)CNC(=O)[C@H](CCC(=O)O)NC(=O)C(C)(C)NC(=O)[C@@H](N)Cc1c[nH]cn1)[C@@H](C)O)[C@@H](C)O)C(C)C)C(=O)N[C@@H](C)C(=O)N[C@@H](Cc1c[nH]c2ccccc12)C(=O)N[C@@H](CC(C)C)C(=O)N[C@H](C(=O)N[C@@H](CCCCN)C(=O)NCC(=O)N[C@@](C)(CCCNC(=N)N)C(N)=O)C(C)C` [SEQ ID NO: 24, H-(Aib)^2-EGT^5 FTSDV^10 SSYLE^15 GQAAK^20 EFIAW^25 LVKG-(α-MeR)^30], the EC50 worked out at 0.021 nM on hGLP-1R, 111 nM on hGluc-R and 111 nM on hGIP-R.

Turning to `CC[C@H](C)[C@H](NC(=O)[C@H](Cc1ccccc1)NC(=O)[C@H](CCC(=O)O)NC(=O)[C@H](CCCCN)NC(=O)[C@H](C)NC(=O)[C@H](C)NC(=O)[C@H](CCC(N)=O)NC(=O)CNC(=O)[C@H](CCC(=O)O)NC(=O)[C@H](CC(C)C)NC(=O)[C@H](Cc1ccc(O)cc1)NC(=O)[C@H](CO)NC(=O)[C@H](CO)NC(=O)[C@@H](NC(=O)[C@H](CC(=O)O)NC(=O)[C@H](CO)NC(=O)[C@@H](NC(=O)[C@H](Cc1ccccc1)NC(=O)[C@@H](NC(=O)CNC(=O)[C@H](CCC(=O)O)NC(=O)C(C)(C)NC(=O)[C@@H](N)Cc1c[nH]cn1)[C@@H](C)O)[C@@H](C)O)C(C)C)C(=O)N[C@@H](C)C(=O)N[C@@H](Cc1c[nH]c2ccccc12)C(=O)N[C@@H](CC(C)C)C(=O)N[C@H](C(=O)N[C@@H](CCCCN)C(=O)NCC(=O)NC(C)(C)C(N)=O)C(C)C` [SEQ ID NO: 25, H-(Aib)^2-EGT^5 FTSDV^10 SSYLE^15 GQAAK^20 EFIAW^25 LVKG-(Aib)^30], the results for the concentration for a half-maximal effect (EC50) on hGLP-1R, at hGluc-R and on hGIP-R were 0.0277 nM, 96.4 nM and 96.4 nM, respectively.
